In assay [1] the target is T1, Thymidine phosphorylase (Homo sapiens) (UniProt P19971).
T1 sequence (whole entry): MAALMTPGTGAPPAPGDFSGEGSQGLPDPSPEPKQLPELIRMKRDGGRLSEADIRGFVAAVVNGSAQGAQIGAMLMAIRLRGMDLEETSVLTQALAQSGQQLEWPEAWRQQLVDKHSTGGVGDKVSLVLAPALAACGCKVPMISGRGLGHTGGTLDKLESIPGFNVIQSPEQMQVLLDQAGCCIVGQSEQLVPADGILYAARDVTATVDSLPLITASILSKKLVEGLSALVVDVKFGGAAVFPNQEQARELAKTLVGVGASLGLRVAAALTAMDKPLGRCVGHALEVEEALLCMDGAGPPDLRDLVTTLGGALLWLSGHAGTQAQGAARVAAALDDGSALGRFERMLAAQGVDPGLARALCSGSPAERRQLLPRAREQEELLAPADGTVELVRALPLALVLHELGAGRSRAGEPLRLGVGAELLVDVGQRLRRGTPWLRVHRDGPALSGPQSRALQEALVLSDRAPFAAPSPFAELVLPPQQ
In words: Percent inhibition by compound was measured on Human Thymidine Phosphorylase using 100 uM thymine.

For assay [2], the target named is T2, Thymidine phosphorylase (Homo sapiens, UniProt P19971).
T2 sequence (P19971 whole entry): T1 sequence (whole entry)
Description: Inhibition of catabolic activity of human thymidine phosphorylase.

The target of assay [3] is T2, Thymidine phosphorylase. Description: Inhibition of anabolic activity of human thymidine phosphorylase.

pIC50: −log10 of the molar value.

As usually defined, the inhibition is the relative decrease from the control value, in per cent. Read a low inhibition as a weak effect. In assay [1], `Nc1cc(O)nc(O)n1` displayed an inhibition of 41%.
As usually defined, the pIC50 is the negative decadic logarithm of the IC50, by convention in mol/L. Read a high pIC50 as a low IC50. As to `Oc1cc(NCCc2ccccc2)nc(O)n1`, the pIC50 is 3.83 in assay [2] and 3.70 in assay [3].
With `O=c1cc(NCc2ccccc2)[nH]c(=O)[nH]1`, in assay [2], the pIC50 is below 3.70.
